Earlier results in patent EP1487791B1, “A NOVEL ANTIFUNGAL MOLECULE 2-(3,4-DIMETHYL-2,5-DIHYDRO-1H-PYRROL-2-YL)- METHYLETHYL PENTANOATE” (priority 2002, dated 2003).

Settings: reported by Zager, R.A., 2000; cited from earlier work

Structure (SMILES): C[C@@H]1[C@H](O)[C@@H](C)/C=C/C=C/C=C/C=C/C=C/C=C/C=C/[C@H](O[C@@H]2O[C@H](C)[C@@H](O)[C@H](N)[C@@H]2O)C[C@@H]2O[C@](O)(C[C@@H](O)C[C@@H](O)[C@H](O)CC[C@@H](O)C[C@@H](O)CC(=O)O[C@H]1C)C[C@H](O)[C@H]2C(=O)O [amphotericin B]
- CT50: 4.0 to 64.0 µg/mL
